According to patent publication US9255071B2, “Compounds having antibacterial activity, process for their preparation and pharmaceutical compositions comprising them” (Consejo Nacional de Investigaciones Cientificas y Técnicas …, priority 2012, dated 2016):
In brackets after ≈: the same amount, converted by molar mass. One block for each compound: values may come before it.

What was measured:
Enterococcus faecalis = Enterococcus faecalis ATCC 29212; reference antibiotic according to WHONET; in µg/mL; cited from earlier work
Staphylococcus Aureus = Staphylococcus Aureus ATCC 29737; reference antibiotic according to WHONET; in µg/mL; cited from earlier work
Mycobacterium smegmatis = test: Determination of the Minimum Inhibitory Concentration, M. smegmatis; type: cell-based; conditions: Mycolicibacterium smegmatis, ATCC607; M. smegmatis (ATCC 607), 72 h incubation, 1×10^5 CFU/ml inoculum
Method: (§1) The Minimum Inhibitory Concentration (MIC), which is defined as the lowest antimicrobial agent concentration inhibiting the visible growth of a microorganism following its incubation, was subsequently determined.
(§2) For the purpose of such determination, the compounds under study were tested on the strains listed in Table 3 with the antibiotics (AB) stated as reference in the table.
(§3) The test was conducted on a plate on the basis of a 1×10^5 CFU/ml inoculum concentration, with negative, positive and sterility controls being simultaneously performed. Different concentrations of the compounds under study were tested, as shown on the last column included in Table 3 (working solution).
(§4) Following incubation at 32.5±2.5° C. for a 24 h period (48 h in the case of C. sporogenes and 72 h in the case of M. smegmatis), the plates were visually read. The appearance of turbidity and/or the formation of a growth point at the microtube bottom were held as a positive result.

Streptococcus pneumoniae [1] = test: Determination of the Minimum Inhibitory Concentration, S. pneumoniae; type: cell-based; conditions: ATCC10015, S. pneumoniae (ATCC 10015), 24 h incubation, 1×10^5 CFU/ml inoculum
Method: as §1, §2, §3, §4

Acinetobacter guillouiae = Acinetobacter guillouiae ATCC 11171; reference antibiotic according to WHONET; in µg/mL; cited from earlier work
Streptococcus pneumoniae [2] = conditions: Streptococcus pneumoniae ATCC 10015; reference antibiotic according to WHONET; cited from earlier work
Shigella flexneri [3] = test: Determination of the Minimum Inhibitory Concentration, S. flexneri; type: cell-based; conditions: ATCC11836, S. flexneri (ATCC 11836), 24 h incubation, 1×10^5 CFU/ml inoculum
Method: as §1, §2, §3, §4

Shigella boydii [4] = test: Determination of the Minimum Inhibitory Concentration, S. boydii; type: cell-based; conditions: ATCC12027, S. boydii (ATCC 12027), 24 h incubation, 1×10^5 CFU/ml inoculum
Method: as §1, §2, §3, §4

Shigella boydii [5] = system: Shigella boydii; design: unit not given beside the values; conditions: Shigella boydii ATCC 12027; reference antibiotic according to WHONET; cited from earlier work
Shigella flexneri [6] = system: Shigella flexneri; design: unit not given beside the values; conditions: Shigella flexneri ATCC 11836; reference antibiotic according to WHONET; cited from earlier work
Clostridium sporogenes = test: Determination of the Minimum Inhibitory Concentration, C. sporogenes; type: cell-based; conditions: ATCC19404, C. sporogenes (ATCC 19404), 48 h incubation, 1×10^5 CFU/ml inoculum
Method: as §1, §2, §3, §4

Structure (SMILES): CN[C@H](CC(C)C)C(=O)N[C@H]1C(=O)N[C@@H](CC(N)=O)C(=O)N[C@H]2C(=O)N[C@H]3C(=O)N[C@H](C(=O)N[C@H](C(=O)O)c4cc(O)cc(O)c4-c4cc3ccc4O)[C@H](O)c3ccc(c(Cl)c3)Oc3cc2cc(c3O[C@@H]2O[C@H](CO)[C@@H](O)[C@H](O)[C@H]2O[C@H]2C[C@](C)(N)[C@H](O)[C@H](C)O2)Oc2ccc(cc2Cl)[C@H]1O [Vancomycin]
- MIC (for WHO antibiotics) (Enterococcus faecalis): 1.0-4.0
- MIC (for WHO antibiotics) (Staphylococcus Aureus): 0.5-2.0

Structure (SMILES): COc1ccc(C=CC(=O)N2CCN(C(=O)C=Cc3ccc(OC)c(C(F)F)c3)CC2)cc1C(F)F [Example 6, N,N′-bis[3-(difluoromethyl)-4-methoxy-cinnamoyl]piperazine]
- melting point: 259 to 261 °C

Structure (SMILES): CN(C)c1ccc(O)c2c1C[C@H]1C[C@H]3[C@H](N(C)C)C(O)=C(C(N)=O)C(=O)[C@@]3(O)C(O)=C1C2=O [Minocyclin]
- MIC (for WHO antibiotics) (Acinetobacter guillouiae): 0.06-8.0

Structure (SMILES): CC1(C)S[C@@H]2[C@H](NC(=O)[C@H](N)c3ccccc3)C(=O)N2[C@H]1C(=O)O [Ampicillin (sodium), Ampicillin]
- MIC (for WHO antibiotics) (Streptococcus pneumoniae [2]): ≦0.5

Structure (SMILES): COc1ccc(/C=C/C(=O)NC(C)C)cc1O [compound 10]
- MIC (Shigella flexneri [3]): 32 µg/mL (≈ 136 µM)
- MIC (Shigella boydii [4]): 32 µg/mL (≈ 136 µM)

Structure (SMILES): C[C@@H]1O[C@@H]1P(=O)(O)O [Phosphomycin]
- MIC (for WHO antibiotics) (Shigella boydii [5]): ≦4.0
- MIC (for WHO antibiotics) (Shigella flexneri [6]): ≦4.0

Structure (SMILES): COc1ccc(/C=C/C(=O)NNC(=O)c2ccncc2)cc1C(F)F [compound 4]
- MIC (Mycobacterium smegmatis): 64 µg/mL (≈ 184 µM)
- MIC (Clostridium sporogenes): 64 µg/mL (≈ 184 µM)

Now from value to compound:

- MIC (Mycobacterium smegmatis): 64 µg/mL (≈ 215 µM)
Structure (SMILES): CC(=O)Oc1ccc(/C=C/C(=O)NC(C)C)cc1C(F)F [entry 3]

- MIC (Streptococcus pneumoniae [1]): 64 µg/mL (≈ 215 µM)
- MIC (Mycobacterium smegmatis): 8 µg/mL (≈ 26.9 µM)
Structure (SMILES): COc1ccc(/C=C/C(=O)NCCC(C)C)cc1C(F)F [compound 6]

- MIC (Mycobacterium smegmatis): 32 µg/mL (≈ 146 µM)
Structure (SMILES): COc1ccc(/C=C/C(=O)NC(C)C)cc1 [compound 8]

- MIC (Mycobacterium smegmatis): 32 µg/mL (≈ 113 µM)
Structure (SMILES): COc1ccc(/C=C/C(=O)NCC(C)C)cc1C(F)F [compound 5]

- MIC (Mycobacterium smegmatis): 32 µg/mL (≈ 137 µM)
Structure (SMILES): COc1ccc(/C=C/C(=O)NC(C)C)cc1C [compound 9]

- MIC (Mycobacterium smegmatis): 64 µg/mL (≈ 211 µM)
Structure (SMILES): COc1ccc(/C=C/C(=O)Nc2ccccc2)cc1C(F)F [compound 1]

- MIC (Streptococcus pneumoniae [1]): 64 µg/mL (≈ 129 µM)
Structure (SMILES): COc1ccc(/C=C/C(=O)NCCCNC(=O)/C=C/c2ccc(OC)c(C(F)F)c2)cc1C(F)F [compound 7]

- MIC (Mycobacterium smegmatis): 8 µg/mL (≈ 29.7 µM)
Structure (SMILES): COc1ccc(/C=C/C(=O)NC(C)C)cc1C(F)F [compound 2]

- melting point: 119 °C
Structure (SMILES): COc1ccc(C=CC(=O)N2CCOCC2)cc1C(F)F [Example 12, N-[3-(difluoromethyl)-4-methoxy-cinnamoyl]morpholine]
